In article PMC5681660, “Reduced hepatitis B and D viral entry using clinically applied drugs as novel inhibitors of the bile acid transporter NTCP” (Scientific Reports, 2017):
Counter-ions that a name gives are not always drawn. Like-named read-outs stand apart in the source and are kept apart here.

Experiments:
human NTCP [1] = target: T1, human NTCP (Homo sapiens, UniProt Q14973); assay: Screening fluorescent competitive Myrcludex B-FITC binding assay (96-well, 10 µM drug)
T1 sequence (Q14973 1-349): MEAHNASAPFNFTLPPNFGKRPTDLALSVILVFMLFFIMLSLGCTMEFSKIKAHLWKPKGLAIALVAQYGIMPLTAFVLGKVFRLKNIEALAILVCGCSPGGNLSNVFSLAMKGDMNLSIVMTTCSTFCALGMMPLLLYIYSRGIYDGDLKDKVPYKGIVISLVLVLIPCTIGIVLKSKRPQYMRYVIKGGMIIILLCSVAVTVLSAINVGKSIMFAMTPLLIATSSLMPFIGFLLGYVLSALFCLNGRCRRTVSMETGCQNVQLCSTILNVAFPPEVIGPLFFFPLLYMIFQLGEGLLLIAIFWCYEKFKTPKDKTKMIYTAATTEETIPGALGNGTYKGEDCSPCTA

human NTCP [2] = target: T1, human NTCP; assay: Screening taurocholate uptake assay (96-well, [14C]taurocholate, 10 µM drug)
[3] = screen, 10 µM drug, Myrcludex B-FITC binding
[4] = combined ranking from functional and binding screening assays
[5] = screen, 10 µM drug, taurocholate uptake
[6] = Prestwick library screen, Myrcludex B-FITC binding, 10 µM drug
[7] = Prestwick library screen, taurocholate uptake, 10 µM drug
[8] = ranking score beside the functional and binding assay B-scores of the screen
[9] = Prestwick library screen, 10 µM drug, B-score of Myrcludex B-FITC binding
[10] = Prestwick library screen, 10 µM drug, B-score of taurocholate uptake
[11] = combined ranking from functional and binding assay B-scores

## COc1ccccc1N1CCN(CC(O)COc2cccc3ccccc23)CC1.Cl.Cl (stereo not drawn) [Naftopidil dihydrochloride]
Human NTCP [1]; [3]
  B-score binding assay: 1.879
Human NTCP [2]; [4]
  Ranking score: 412.912
Human NTCP [2]; [5]
  B-score functional assay: -1.853

## O=C(NCCNCC(O)COc1ccc(O)cc1)N1CCOCC1 (stereo not drawn) [Xamoterol hemifumarate]
Human NTCP [1]
  B-score binding assay: -0.721
Human NTCP [2]
  B-score functional assay: 0.875
  Ranking score: 564.879

## CC(=O)Nc1nnc(S(N)(=O)=O)s1 [Acetazolamide]
Human NTCP [1]; [6]
  B-score binding assay: -0.137
Human NTCP [2]; [7]
  B-score functional assay: 0.532
Human NTCP [2]; [8]
  Ranking score: 696.956

## Cl.Cl.Cl.Cl.Cl.NCCNCCNCCNCCN
Human NTCP [1]; [6]
  B-score binding assay: 0.678
Human NTCP [2]; [7]
  B-score functional assay: -0.035
Human NTCP [2]; [8]
  Ranking score: 758.136

## CCCCC1C(=O)N(c2ccccc2)N(c2ccccc2)C1=O [Phenylbutazone]
Human NTCP [1]; [3]
  B-score binding assay: -0.956
Human NTCP [2]; [4]
  Ranking score: 440.765
Human NTCP [2]; [5]
  B-score functional assay: 0.138

## Cc1c(N(C)C)c(=O)n(-c2ccccc2)n1C [Amidopyrine]
Human NTCP [1]; [3]
  B-score binding assay: -1.103
Human NTCP [2]; [4]
  Ranking score: 343.366
Human NTCP [2]; [5]
  B-score functional assay: -0.111

## CCCC(CCC)C(=O)O [Valproic acid]
Human NTCP [1]; [9]
  B-score binding assay: 1.515
Human NTCP [2]; [10]
  B-score functional assay: 0.92
Human NTCP [2]; [11]
  Ranking score: 1093.47

## CN(C)CCCO[C@@H]1[C@H]2OC(C)(C)O[C@H]2O[C@@H]1[C@H](O)CO [Amiprilose hydrochloride]
Human NTCP [1]; [6]
  B-score binding assay: 0.378
Human NTCP [2]; [7]
  B-score functional assay: 0.017
Human NTCP [2]; [8]
  Ranking score: 760.053

## NCC(CC(=O)O)c1ccc(Cl)cc1 (racemic) [Baclofen (R,S)]
Human NTCP [1]; [9]
  B-score binding assay: 0.531
Human NTCP [2]; [10]
  B-score functional assay: 2.955
Human NTCP [2]; [11]
  Ranking score: 1069.07

## CO[C@@]1(NC(=O)C2SC(=C(C(N)=O)C(=O)O)S2)C(=O)N2C(C(=O)O)=C(CSc3nnnn3C)CS[C@@H]21 (stereo partly drawn) [Cefotetan]
Human NTCP [1]; [6]
  B-score binding assay: -0.646
Human NTCP [2]; [7]
  B-score functional assay: 4.862
Human NTCP [2]; [8]
  Ranking score: 655.496

## O=C(N/N=C/c1ccc([N+](=O)[O-])o1)c1ccc(O)cc1 [Nifuroxazide]
Human NTCP [1]; [9]
  B-score binding assay: 0.661
Human NTCP [2]; [10]
  B-score functional assay: 2.774
Human NTCP [2]; [11]
  Ranking score: 1088.47

## c1ccc2[nH]c(-c3cscn3)nc2c1 [Tiabendazole]
Human NTCP [1]; [9]
  B-score binding assay: 0.306
Human NTCP [2]; [10]
  B-score functional assay: 0.849
Human NTCP [2]; [11]
  Ranking score: 925.084

## CC(=O)OCC(=O)[C@H]1CC[C@H]2[C@@H]3CC[C@H]4C[C@H](O)CC[C@]4(C)[C@H]3C(=O)C[C@]12C [Alfadolone acetate]
Human NTCP [1]; [9]
  B-score binding assay: 2.253
Human NTCP [2]; [10]
  B-score functional assay: 0.626
Human NTCP [2]; [11]
  Ranking score: 1074.24

## CCCCC(C)(O)C/C=C/[C@H]1[C@H](O)CC(=O)[C@@H]1CCCCCCC(=O)OC (mixture of isomers) [Misoprostol]
Human NTCP [1]; [6]
  B-score binding assay: 0.662
Human NTCP [2]; [7]
  B-score functional assay: -0.231
Human NTCP [2]; [8]
  Ranking score: 671.728

## CC(=O)O[C@]1(C(C)=O)CC[C@H]2[C@@H]3C=C(C)C4=CC(=O)CC[C@@H]4[C@H]3CC[C@@]21C [Nomegestrol acetate]
Human NTCP [1]; [3]
  B-score binding assay: 1.174
Human NTCP [2]; [4]
  Ranking score: 298.149
Human NTCP [2]; [5]
  B-score functional assay: -2.71

## CN(C)C(=O)Oc1cccc([N+](C)(C)C)c1 [Neostigmine bromide]
Human NTCP [1]; [6]
  B-score binding assay: 0.229
Human NTCP [2]; [7]
  B-score functional assay: -0.02
Human NTCP [2]; [8]
  Ranking score: 703.343

## Nc1ccc(S(=O)(=O)[N-]c2cnc3ccccc3n2)cc1.[Na+] [Sulfaquinoxaline sodium salt]
Human NTCP [1]; [9]
  B-score binding assay: 0.273
Human NTCP [2]; [10]
  B-score functional assay: 0.659
Human NTCP [2]; [11]
  Ranking score: 893.639

## CCOC(=O)C1=C(COCCN)NC(C)=C(C(=O)OC)C1c1ccccc1Cl (stereo not drawn) [Amlodipine]
Human NTCP [1]; [9]
  B-score binding assay: 2.427
Human NTCP [2]; [10]
  B-score functional assay: 0.5
Human NTCP [2]; [11]
  Ranking score: 1057.69

## CN1CCCN(C(c2ccccc2)c2ccc(Cl)cc2)CC1.Cl.Cl (stereo not drawn) [Homochlorcyclizine dihydrochloride]
Human NTCP [1]; [9]
  B-score binding assay: 1.404
Human NTCP [2]; [10]
  B-score functional assay: 0.737
Human NTCP [2]; [11]
  Ranking score: 1053.65

## CN1C(C(=O)Nc2ccccn2)=C(O)c2ccccc2S1(=O)=O [Piroxicam]
Human NTCP [1]; [6]
  B-score binding assay: -0.312
Human NTCP [2]; [7]
  B-score functional assay: 0.754
Human NTCP [2]; [8]
  Ranking score: 662.993

## O=C1NCCN1c1ncc([N+](=O)[O-])s1 [Niridazole]
Human NTCP [1]; [3]
  B-score binding assay: -0.358
Human NTCP [2]; [4]
  Ranking score: 301.174
Human NTCP [2]; [5]
  B-score functional assay: -1.225

## CCOC(=O)C(C)(C)Oc1ccc(Cl)cc1 [Clofibrate]
Human NTCP [1]; [9]
  B-score binding assay: 0.712
Human NTCP [2]; [10]
  B-score functional assay: 1.746
Human NTCP [2]; [11]
  Ranking score: 1068.42

## NNC(=O)c1ccncc1 [Isoniazid]
Human NTCP [1]; [9]
  B-score binding assay: 1.337
Human NTCP [2]; [10]
  B-score functional assay: 1.386
Human NTCP [2]; [11]
  Ranking score: 1117.92

## CCCCc1ccc2[nH]c(NC(=O)OC)nc2c1 [Parbendazole]
Human NTCP [1]; [9]
  B-score binding assay: 0.33
Human NTCP [2]; [10]
  B-score functional assay: 1.481
Human NTCP [2]; [11]
  Ranking score: 989.697

## O=C1Cc2cc(CCN3CCN(c4nsc5ccccc45)CC3)c(Cl)cc2N1 [Ziprasidone Hydrochloride]
Human NTCP [1]; [3]
  B-score binding assay: -0.675
Human NTCP [2]; [4]
  Ranking score: 382.094
Human NTCP [2]; [5]
  B-score functional assay: -0.279

## C[C@]12C[C@H]3S[C@H]3C[C@@H]1CC[C@@H]1[C@@H]2CC[C@]2(C)[C@@H](O)CC[C@@H]12 [Epitiostanol]
Human NTCP [1]
  B-score binding assay: 0.911
Human NTCP [2]
  B-score functional assay: 0.926
  Ranking score: 1032.88

## NC(=O)C(c1ccccc1)(c1ccccc1)[C@@H]1CCN(CCc2ccc3c(c2)CCO3)C1 [Darifenacin hydrobromide]
Human NTCP [1]
  B-score binding assay: 0.023
Human NTCP [2]
  B-score functional assay: 2.058
  Ranking score: 899.12

## CCN1CCCC(OC(=O)C(c2ccccc2)c2ccccc2)C1 (stereo not drawn) [Piperidolate hydrochloride]
Human NTCP [1]; [3]
  B-score binding assay: -1.968
Human NTCP [2]; [4]
  Ranking score: 357.281
Human NTCP [2]; [5]
  B-score functional assay: 1.475

## Brc1c(NC2=NCCN2)ccc2nccnc12.O=C(O)C(O)C(O)C(=O)O [Brimondine L-Tartrate]
Human NTCP [1]; [3]
  B-score binding assay: -0.57
Human NTCP [2]; [4]
  Ranking score: 294.551
Human NTCP [2]; [5]
  B-score functional assay: -1.091

## CCCCC(O)c1ccccc1 (stereo not drawn) [Fenipentol]
Human NTCP [1]; [3]
  B-score binding assay: -0.138
Human NTCP [2]; [4]
  Ranking score: 460.361
Human NTCP [2]; [5]
  B-score functional assay: -0.409

## Cl.NC1CCN(c2nc3c(cc2F)c(=O)c(C(=O)O)cn3-c2ccc(F)cc2F)C1 (stereo not drawn) [Tosufloxacin hydrochloride]
Human NTCP [1]; [6]
  B-score binding assay: 0.338
Human NTCP [2]; [7]
  B-score functional assay: 0.009
Human NTCP [2]; [8]
  Ranking score: 746.768

## c1ccc(CN(CC2=NCCN2)c2ccccc2)cc1 [Antazoline hydrochloride]
Human NTCP [1]; [9]
  B-score binding assay: 0.166
Human NTCP [2]; [10]
  B-score functional assay: 1.194
Human NTCP [2]; [11]
  Ranking score: 927.719

## Nc1[nH]c(=O)ncc1F [Flucytosine]
Human NTCP [1]; [3]
  B-score binding assay: 0.063
Human NTCP [2]; [4]
  Ranking score: 352.224
Human NTCP [2]; [5]
  B-score functional assay: -1.554

## CC(=O)O[C@]1(C(C)=O)CC[C@H]2[C@@H]3C=C(Cl)C4=CC(=O)[C@@H]5C[C@@H]5[C@]4(C)[C@H]3CC[C@@]21C [Cyproterone acetate]
Human NTCP [1]; [6]
  B-score binding assay: 0.796
Human NTCP [2]; [7]
  B-score functional assay: -0.245
Human NTCP [2]; [8]
  Ranking score: 678.19

## Nc1nc(=O)c2c([nH]1)NCC(CNc1ccc(C(=O)N[C@@H](CCC(=O)[O-])C(=O)[O-])cc1)N2C=O.[Ca+2] (stereo partly drawn) [Folinic acid calcium salt]
Human NTCP [1]; [6]
  B-score binding assay: 0.117
Human NTCP [2]; [7]
  B-score functional assay: 0.369
Human NTCP [2]; [8]
  Ranking score: 806.918

## CC1=NS(=O)(=O)c2cc(Cl)ccc2N1 [Diazoxide]
Human NTCP [1]; [3]
  B-score binding assay: -0.26
Human NTCP [2]; [4]
  Ranking score: 331.971
Human NTCP [2]; [5]
  B-score functional assay: -1.121

## CC1(C)S[C@@H]2[C@H](NC(=O)Cc3ccccc3)C(=O)N2[C@H]1C(=O)O.CC1(C)S[C@@H]2[C@H](NC(=O)Cc3ccccc3)C(=O)N2[C@H]1C(=O)O.c1ccc(CNCCNCc2ccccc2)cc1 [Benzathine benzylpenicillin]
Human NTCP [1]; [6]
  B-score binding assay: 0.21
Human NTCP [2]; [7]
  B-score functional assay: -0.072
Human NTCP [2]; [8]
  Ranking score: 672.134
